Source: patent publication US20180320217A1, “METHODS FOR SAMPLING AND MEASURING ORAL LAVAGE PROTEINS” (The Procter & Gamble Company, priority 2017, published 2018)
“And” between values parts separate entries of the source, which are not always exact repeats. Equal values may be shown once.

How the values were obtained:
[1] = Formation of formazan dyes: control buffer, malate and 1-Methoxy PMS (TABLE 22); assay type: biochemical
[2] = system: Malate dehydrogenase and diaphorase; experiment: Formation of formazan dyes: Malate dehydrogenase, diaphorase and malate (TABLE 10); assay type: biochemical, pig heart
oral lavage [3] = experiment: Formation of formazan dyes: oral lavage and 1-Methoxy PMS, absence of malate (TABLE 19); assay type: biochemical, human
diaphorase [4] = experiment: Formation of formazan dyes: NADH and diaphorase, absence of malate (TABLE 7); assay type: biochemical, Clostridium kluyveri
diaphorase [5] = experiment: Formation of formazan dyes: NADH, diaphorase and malate (TABLE 8); assay type: biochemical, Clostridium kluyveri
Malate dehydrogenase = biological target: T1, Malate dehydrogenase (Sus scrofa, UniProt P00346); experiment: Formation of formazan dyes: Malate dehydrogenase and 1-Methoxy PMS, absence of malate (TABLE 17); assay type: biochemical, pig heart; design: L-malate dehydrogenase (pig heart); purchased Sigma-Aldrich 10127248001 / 10127914001
T1 sequence (P00346 25-338): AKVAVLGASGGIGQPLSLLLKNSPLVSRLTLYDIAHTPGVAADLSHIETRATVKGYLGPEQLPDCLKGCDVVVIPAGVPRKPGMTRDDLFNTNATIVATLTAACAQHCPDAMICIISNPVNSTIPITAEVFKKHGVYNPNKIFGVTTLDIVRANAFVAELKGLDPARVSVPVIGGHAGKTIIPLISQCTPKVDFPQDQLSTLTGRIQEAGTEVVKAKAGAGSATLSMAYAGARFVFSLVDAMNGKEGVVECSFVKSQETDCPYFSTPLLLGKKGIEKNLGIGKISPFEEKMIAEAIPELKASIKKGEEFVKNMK

[6] = Formation of formazan dyes: NADH and 1-methoxy PMS, absence of malate (TABLE 15); assay type: biochemical
oral lavage [7] = experiment: Formation of formazan dyes: oral lavage and diaphorase, not malate (TABLE 11); assay type: biochemical, human
oral lavage [8] = experiment: Formation of formazan dyes: oral lavage, malate and diaphorase (TABLE 12); assay type: biochemical, human
[9] = Formation of formazan dyes: control buffer and 1-Methoxy PMS, absence of malate (TABLE 21); assay type: biochemical
[10] = system: Malate dehydrogenase and diaphorase; experiment: Formation of formazan dyes: Malate dehydrogenase and diaphorase, absence of malate (TABLE 9); assay type: biochemical, pig heart
oral lavage [11] = experiment: Formation of formazan dyes: oral lavage, malate and 1-Methoxy PMS (TABLE 20); assay type: biochemical, human

For `COc1cc(-c2ccc(-n3nc(-c4ccccc4)n[n+]3-c3ccc([N+](=O)[O-])cc3)c(OC)c2)ccc1-n1nc(-c2ccccc2)n[n+]1-c1ccc([N+](=O)[O-])cc1` [Nitro-TB, 3,3′-[3,3′-Dimethoxy-(1,1′-biphenyl)-4,4′-diyl]-bis[2-(4-nitrophenyl)-5-phenyl-2H-tetrazolium chloride], the “Means absorbance 0 h” value [1] was 0.16, the “Means absorbance 1 h” value [1] was 0.16 and the “Means absorbance 2 h” value [1] was 0.17. The “Means absorbance 3 h” value [1] was 0.19, the “Means absorbance 4 h” value [1] was 0.19 and the “Means absorbance 6 h” value [1] was 0.24. The “Means absorbance 8 h” value [1] was 0.29, the “Means absorbance 10 h” value [1] was 0.18 and the “Means absorbance 12 h” value [1] was 0.23. For the same compound, the “Formation of formazan dyes, absorbance, Means 0 h” value (from here on “Formation … Means 0 h”) [2] was 0.56, the “Formation of formazan dyes, absorbance, Means 1 h” value (shortened to “Formation … Means 1 h”) [2] was 0.88 and the “Formation of formazan dyes, absorbance, Means 2 h” value (“Formation … Means 2 h” below) [2] was 1.08. The “Formation of formazan dyes, absorbance, Means 3 h” value (from here on “Formation … Means 3 h”) [2] was 1.23, the “Formation of formazan dyes, absorbance, Means 4 h” value (shortened to “Formation … Means 4 h”) [2] was 1.46 and the “Formation of formazan dyes, absorbance, Means 6 h” value (“Formation … Means 6 h” below) [2] was 1.73. The “Formation of formazan dyes, absorbance, Means 8 h” value (from here on “Formation … Means 8 h”) [2] was 1.95, the “Formation of formazan dyes, absorbance, Means 10 h” value (shortened to “Formation … Means 10 h”) [2] was 2.16 and the “Formation of formazan dyes, absorbance, Means 12 h” value (“Formation … Means 12 h” for short) [2] was 2.35. The “conversion to reduced formazan dyes” value [2] was “converted to reduced formazan dyes in a time-dependent manner”, the “Absorbance, formation of formazan dyes (Means)” value (“Absorbance, formation” below) (oral lavage [3]) was 0.52 and 0.58 and 0.61 and 0.63 and 0.60 and 0.68 and 0.73 and 0.82 and the “Formation … Means 0 h” value (diaphorase [4]) was 1.49. The “Formation … Means 1 h” value (diaphorase [4]) was 1.71, the “Formation … Means 2 h” value (diaphorase [4]) was 1.73 and the “Formation … Means 3 h” value (diaphorase [4]) was 1.71. The “Formation … Means 4 h” value (diaphorase [4]) was 1.74, the “Formation … Means 6 h” value (diaphorase [4]) was 1.86 and the “Formation … Means 8 h” value (diaphorase [4]) was 1.83. The “Formation … Means 10 h” value (diaphorase [4]) was 1.85, the “Formation … Means 12 h” value (diaphorase [4]) was 1.82 and the “Formation … Means 0 h” value (diaphorase [5]) was 1.03. The “Formation … Means 1 h” value (diaphorase [5]) was 1.15, the “Formation … Means 2 h” value (diaphorase [5]) was 1.16 and the “Formation … Means 3 h” value (diaphorase [5]) was 1.17. The “Formation … Means 4 h” value (diaphorase [5]) was 1.22, the “Formation … Means 6 h” value (diaphorase [5]) was 1.27 and the “Formation … Means 8 h” value (diaphorase [5]) was 1.33. For the same compound, the “Formation … Means 10 h” value (diaphorase [5]) was 1.37, the “Formation … Means 12 h” value (diaphorase [5]) was 1.42 and the “Absorbance, formation” value (Malate dehydrogenase) was 0.31 and 0.40 and 0.39 and 0.35 and 0.36 and 0.32 and 0.41. The “formation of formazan dyes / precipitates with 1-methoxy PMS and NADH” value [6] was “formed precipitates”, the “Formation … Means 0 h” value (oral lavage [7]) was 0.56 and the “Formation … Means 1 h” value (oral lavage [7]) was 0.79. The “Formation … Means 2 h” value (oral lavage [7]) was 0.85, the “Formation … Means 3 h” value (oral lavage [7]) was 0.81 and the “Formation … Means 4 h” value (oral lavage [7]) was 0.88. For the same compound, the “Formation … Means 6 h” value (oral lavage [7]) was 0.87, the “Formation … Means 8 h” value (oral lavage [7]) was 0.88 and the “Formation … Means 10 h” value (oral lavage [7]) was 0.86. For the same compound, the “Formation … Means 12 h” value (oral lavage [7]) was 0.87, the “reduction to formazan dyes by pooled oral lavage” value (oral lavage [7]) was “changed to formazan dyes in a significant amount” and the “Formation … Means 0 h” value (oral lavage [8]) was 0.52. The “Formation … Means 1 h” value (oral lavage [8]) was 0.75, the “Formation … Means 2 h” value (oral lavage [8]) was 0.80 and the “Formation … Means 3 h” value (oral lavage [8]) was 0.75. For the same compound, the “Formation … Means 4 h” value (oral lavage [8]) was 0.88, the “Formation … Means 6 h” value (oral lavage [8]) was 1.00 and the “Formation … Means 8 h” value (oral lavage [8]) was 1.09. The “Formation … Means 10 h” value (oral lavage [8]) was 1.20, the “Formation … Means 12 h” value (oral lavage [8]) was 1.30 and the “Absorbance, formation” value [9] was 0.33 and 0.41 and 0.42 and 0.44 and 0.39 and 0.45 and 0.43. For the same compound, the “Formation … Means 0 h” value [10] was 0.15, the “Formation … Means 1 h” value [10] was 0.20 and the “Formation … Means 2 h” value [10] was 0.23. The “Formation … Means 3 h” value [10] was 0.25, the “Formation … Means 4 h” value [10] was 0.36 and the “Formation … Means 6 h” value [10] was 0.39. The “Formation … Means 8 h” value [10] was 0.40, the “Formation … Means 10 h” value [10] was 0.41 and the “Formation … Means 12 h” value [10] was 0.42. The “reduction of tetrazolium dye in the absence of substrate malate” value [10] was “remained largely in oxidized forms” and the “Absorbance, formation” value (oral lavage [11]) was 0.35 and 0.37 and 0.40 and 0.43 and 0.29 and 0.30 and 0.31.
